Reference: article PMC9260667, “Thioredoxin Reductase Inhibitors as Potential Antitumors: Mercury Compounds Efficacy in Glioma Cells” (Frontiers in Molecular Biosciences, 2022)
Where two headings read alike, the source gives them in different places.

Assays:
GL261 cells [1] = experiment: cells; format: cell-based, mouse; details: for IC50: Mus musculus, read-out: IC50 (MTT assay)
Description: The effect of TmHg and EtHg on the viability of GL261 and N9 cells was evaluated by the MTT assay as previously described ([Branco et al., 2014]). Briefly, cells (5 × 10^3) were seeded in 96-well plates (Nunc®) and incubated at 37°C for 24 h to allow proper adherence to plates. Afterwards, TmHg and EtHg (0, 0.5, 1, 2.5, and 5 μM) were added to wells. The same procedure was carried out to evaluate the effect of TMZ on the cellular viability of GL261 and DMSO at a final concentration of 0.1% was added as a control group. For co-exposure, the addition of the mercury compounds (EtHg—1 and 2 μM; TmHg—1 and 2 µM) under study followed the addition of TMZ (200 µM).
Cell viability was determined at the time of addition of the compounds (0 h) and after 24, 48, and 72 h of exposure by adding MTT to a final concentration of 400 μg/ml per well and incubating at 37°C for 4 h. After incubation, the medium was removed, and the formazan crystals were dissolved in a 4:1 DMSO/glycine buffer (pH 10.5). After shaking for 15 min, the viability was evaluated through the measurement of formazan absorption at 550 nm on a microplate reader (Zenyth 3100, Anthos Labtec Instruments) ([Branco et al., 2014]).
The IC50 is the concentration of a compound that decreases MTT reduction by 50% relative to the non-treated control at each time point.

GL261 cells [2] = experiment: cells; format: cell-based, mouse
Description: Cells were seeded in 96-well plates for 24 h prior to the addition of TmHg, EtHg (1 µM), TMZ (200, 400, and 800 µM), and for the 48 h end point the co-exposure of TMZ 200 µM with 1 µM EtHg and 1 µM TmHg. After exposure for 24 and 48 h, the supernatant was transferred to a fresh plate and a lysis buffer (10×) (Thermo Scientific™ Pierce™) was added to wells containing cells and incubated at 37°C for 45 min. LDH activity was evaluated using LDH Cytotoxicity Assay Kit from Thermo Scientific™ Pierce™ in the supernatant and lysate by the addition of lactate (substrate), a tetrazolium salt, and NAD^+ (cofactor) (Reaction Mixture), according to the manufacturer’s instructions. Following 30 min of incubation in the dark at room temperature, LDH release was assessed by measuring the absorbance at 490 and 680 nm in a microplate reader (Omega BMG LABTECH). The release of LDH was quantified as the ratio between the amount in the supernatant and total LDH (supernatant + lysate) ([Branco et al., 2017]).

[3] = design: method as in JECFA 2004, WHO Technical Report Series 922; details: ref JECFA 2004, WHO Technical Report Series 922; cited from earlier work

| SMILES | reduction of viability (MTT) (GL261 cells [1]; GL261, 24 h exposure, maximal effect) | IC50 (GL261 cells [1]; GL261, 48 h exposure) | IC50 (GL261 cells [1]; GL261, 72 h exposure) | change of LDH levels (GL261 cells [2]; GL261, 200 µM TMZ alone) | EC50 (GL261 cells [2]; Mus musculus, GL261, 48 h exposure, read-out: EC50 (LDH assay)) | safe concentration of intake without appearance of neurological disorders [3] |
| --- | --- | --- | --- | --- | --- | --- |
| Cn1nnc2c(C(N)=O)ncn2c1=O [TMZ, temozolomide] | ≤ 40% | 444 ± 60 µM | 276 ± 7 µM | did not change the levels of LDH | > 800 µM |  |
| [CH3][Hg][Cl] [methylmercury] |  |  |  |  |  | 1.6 µg/Kg b.w./week |
